Results on 14 compounds are retold here after PMC6225123, “Optimization of Aminoimidazole Derivatives as Src Family Kinase Inhibitors” (Molecules : A Journal of Synthetic Chemistry and Natural …, 2018).

Read-outs that look alike come from different tables or passages of the source.

The test system of data set [1] is Jak2. On the set-up: method as in PMID 24359159. The conditions noted are these: cited from earlier work.
The target in data set [2] is T1, LynA (Homo sapiens, UniProt P07948).
T1 construct: (Fyn, LynA, and Yes1, all human recombinant full-length proteins)
As to the kind of experiment: Z'-LYTE kinase assay (FRET), SFK profiling. The format is biochemical. The conditions noted are these: isolated enzyme, mean ± SD of two independent experiments; read-out: Lyn IC50.
Method: (§3) Enzymatic assays to determine the kinase inhibitory activity of NCEs were performed using an automatic liquid-handling device (Microlab STAR Hamilton) and Z’-LYTE Kinase Assay Platform, a fluorescence resonance energy transfer (FRET)-based assay platform compatible with high-throughput screening (HTS) applications. […] The assay procedure was carried out according to the supplier’s indications. […] Final results have been expressed as percent inhibition, and IC50 values were calculated by non-linear curve fitting using GraphPad Prism software (version 6 for Windows). The inter-experimental variability of IC50 values resulted within accepted limits of ±0.5 log units.

Data set [3] concerns the target T2, Yes1 (Homo sapiens, UniProt P07947).
T2 construct: (Fyn, LynA, and Yes1, all human recombinant full-length proteins)
As to the kind of experiment: Z'-LYTE kinase assay (FRET), SFK profiling. The format is biochemical. Conditions: isolated enzyme, mean ± SD of two independent experiments; read-out: Yes IC50.
Method: as §3

The target of data set [4] is T3, Fyn (Homo sapiens, UniProt P06241).
T3 construct: (Fyn, LynA, and Yes1, all human recombinant full-length proteins)
As to the kind of experiment: Z'-LYTE kinase assay (FRET), SFK profiling. Conditions: isolated enzyme, mean ± SD of two independent experiments. The format is biochemical.
Method: as §3

For data set [5], the target named is active human recombinant Src (Homo sapiens, UniProt P12931). The data set is described as follows: Z'-LYTE kinase assay (FRET), primary screen. The format is biochemical. The conditions noted are these: isolated enzyme, mean ± SD of two independent experiments.
Method: as §3
For data set [6], the system named is SH-SY5Y neuroblastoma cell line. Details: method as in PMID 26514807. The conditions noted are these: previous work; cited from earlier work.
Data set [7] has as its system K562 CML cell line. Details: method as in PMID 26514807. The conditions noted are these: previous work; cited from earlier work.
The test system of data set [8] is SH-SY5Y neuroblastoma cell line. As to the kind of experiment: Antiproliferative assay, viable cell count after 72 h. It is filed as cell-based, human. The conditions noted are these: for increased activity compared to the hit compound 2 on SH-SY5Y cells: 72 h, ratio of IC50 values; for IC50: Homo sapiens, 72 h incubation, read-out: IC50 antiproliferative activity on SH-SY5Y cells. How it is done:
(§1) Starting from these promising results in enzymatic assays, we decided to test NCEs 4 on K562 CML and SH-SY5Y NB cell lines, to evaluate if they are endowed with an increased antiproliferative activity compared with the hit compound 2. A hyperactivation of SFKs has been detected in both K562 and SH-SY5Y cell lines. Cells were treated with increasing concentrations of compounds and cell proliferation was measured by counting viable cells after 72 h of incubation. […] The activity of these compounds could be due not only to Src inhibition, but also to their effect on Fyn and Lyn, both involved in NB development.
(§2) In vitro experiments were carried out using human neuroblastoma cell line SH-SY5Y, human glioblastoma cell line U-87, and human erythroleukemia cell line K-562. Cell lines were obtained from American Tissue Culture Collection (ATCC, SH-SY5Y CRL-2266; U-87 HTB-14; K-562 CCL-243). K-562 cells were cultured in RPMI medium with 10% FCS. SH-SY5Y and U-87 cells were cultured in DMEM medium with 10% FCS. In order to determine antiproliferative effect of NCE compounds cells were seeded at density of 5 × 10^4 cells/mL (K-562) or 10 × 10^4 cells/cm^2 (SH-SY5Y, U-87) and treated with increasing concentrations of NCE compounds. Control cells were treated with the vehicle of the experimental point containing the highest percentage of DMSO. Cell cultures were maintained at 37 °C in 5% v/v CO2 for 72 h. Cell number and vitality were evaluated on cell suspension using the automatic cell counter NucleoCounter® (Chemometec, Denmark). Results from the NucleoCounter represented either total or non-viable cell concentration, depending on the sample preparation indicated by the manufacturer. Each experiment was performed at least three times and results were expressed as mean and standard deviation.

Data set [9] has as its system K562 CML cell line. The description is as above. The format is cell-based. Conditions: Homo sapiens; K562, 72 h incubation; read-out: IC50 antiproliferative activity on K562 cells. How it is done: as §1
In vitro experiments were carried out using human neuroblastoma cell line SH-SY5Y, human glioblastoma cell line U-87, and human erythroleukemia cell line K-562. Cell lines were obtained from American Tissue Culture Collection (ATCC, SH-SY5Y CRL-2266; U-87 HTB-14; K-562 CCL-243). K-562 cells were cultured in RPMI medium with 10% FCS. SH-SY5Y and U-87 cells were cultured in DMEM medium with 10% FCS. […] Cell number and vitality were evaluated on cell suspension using the automatic cell counter NucleoCounter® (Chemometec, Denmark). […] Each experiment was performed at least three times and results were expressed as mean and standard deviation.

Data set [10] relates to U87 glioblastoma multiforme cells. The description is as above. The format is cell-based. The conditions noted are these: Homo sapiens; U87, 72 h incubation. Here is the method:
A possible explanation could be the multidrug resistance mechanisms that GBM cells usually carry: an example is the overexpression of membrane channels (ABCB1) that are able to pump different kind of drugs out of the cells. In Supplementary Materials, Figure S1, the activity of other NCEs on U87 GBM cell line are reported.
as §2, with “Results from the NucleoCounter represented either total or non-viable cell concentration, depending on the sample preparation indicated by the manufacturer.” left out

As a reminder, the IC50 is the concentration that gives 50% inhibition. As usually defined, the melting point is the temperature of the solid-liquid transition.

T2 sequence (P07947 whole entry): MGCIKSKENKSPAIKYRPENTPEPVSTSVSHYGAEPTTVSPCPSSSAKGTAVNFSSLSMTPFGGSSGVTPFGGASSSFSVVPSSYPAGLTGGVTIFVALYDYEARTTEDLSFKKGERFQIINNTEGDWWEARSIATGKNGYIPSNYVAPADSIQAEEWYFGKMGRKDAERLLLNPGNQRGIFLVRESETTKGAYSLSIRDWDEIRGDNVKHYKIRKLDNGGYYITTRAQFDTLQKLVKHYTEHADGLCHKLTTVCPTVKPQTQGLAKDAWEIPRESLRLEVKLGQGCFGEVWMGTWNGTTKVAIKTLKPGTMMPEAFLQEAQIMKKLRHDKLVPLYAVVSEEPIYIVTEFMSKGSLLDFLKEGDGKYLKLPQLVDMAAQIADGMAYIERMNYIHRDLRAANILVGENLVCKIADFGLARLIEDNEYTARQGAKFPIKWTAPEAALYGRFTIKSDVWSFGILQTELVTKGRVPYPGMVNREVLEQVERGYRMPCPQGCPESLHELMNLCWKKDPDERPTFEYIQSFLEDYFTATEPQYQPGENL
T3 sequence (P06241 whole entry): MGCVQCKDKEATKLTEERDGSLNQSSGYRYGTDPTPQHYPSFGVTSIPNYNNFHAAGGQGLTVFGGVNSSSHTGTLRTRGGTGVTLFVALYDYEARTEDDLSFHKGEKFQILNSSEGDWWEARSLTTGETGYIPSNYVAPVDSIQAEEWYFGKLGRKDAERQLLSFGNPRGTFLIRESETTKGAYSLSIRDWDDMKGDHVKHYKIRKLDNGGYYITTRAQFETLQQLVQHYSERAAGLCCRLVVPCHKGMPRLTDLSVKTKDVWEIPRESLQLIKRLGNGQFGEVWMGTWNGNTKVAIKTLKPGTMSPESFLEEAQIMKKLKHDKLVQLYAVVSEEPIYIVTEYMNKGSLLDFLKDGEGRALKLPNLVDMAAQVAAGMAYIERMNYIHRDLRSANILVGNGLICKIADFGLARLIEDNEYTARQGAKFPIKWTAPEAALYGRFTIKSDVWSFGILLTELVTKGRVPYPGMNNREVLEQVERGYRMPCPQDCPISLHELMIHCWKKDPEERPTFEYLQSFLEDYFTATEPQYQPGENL
active human recombinant Src, sequence (P12931 whole entry): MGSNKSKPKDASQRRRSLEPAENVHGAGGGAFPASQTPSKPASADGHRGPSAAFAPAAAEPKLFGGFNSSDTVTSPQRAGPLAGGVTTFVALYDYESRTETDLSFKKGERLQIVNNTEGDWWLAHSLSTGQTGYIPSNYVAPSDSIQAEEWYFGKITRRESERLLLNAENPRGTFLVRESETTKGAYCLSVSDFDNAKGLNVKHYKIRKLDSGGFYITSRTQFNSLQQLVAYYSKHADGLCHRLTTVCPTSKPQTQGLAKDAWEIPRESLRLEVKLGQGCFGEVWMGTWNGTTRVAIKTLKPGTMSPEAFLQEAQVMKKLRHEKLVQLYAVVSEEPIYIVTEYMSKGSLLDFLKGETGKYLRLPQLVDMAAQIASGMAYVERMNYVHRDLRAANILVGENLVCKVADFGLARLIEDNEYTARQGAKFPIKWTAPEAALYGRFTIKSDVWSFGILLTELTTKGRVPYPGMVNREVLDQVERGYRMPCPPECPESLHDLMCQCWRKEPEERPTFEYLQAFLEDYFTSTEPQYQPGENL
T1 sequence (P07948 whole entry): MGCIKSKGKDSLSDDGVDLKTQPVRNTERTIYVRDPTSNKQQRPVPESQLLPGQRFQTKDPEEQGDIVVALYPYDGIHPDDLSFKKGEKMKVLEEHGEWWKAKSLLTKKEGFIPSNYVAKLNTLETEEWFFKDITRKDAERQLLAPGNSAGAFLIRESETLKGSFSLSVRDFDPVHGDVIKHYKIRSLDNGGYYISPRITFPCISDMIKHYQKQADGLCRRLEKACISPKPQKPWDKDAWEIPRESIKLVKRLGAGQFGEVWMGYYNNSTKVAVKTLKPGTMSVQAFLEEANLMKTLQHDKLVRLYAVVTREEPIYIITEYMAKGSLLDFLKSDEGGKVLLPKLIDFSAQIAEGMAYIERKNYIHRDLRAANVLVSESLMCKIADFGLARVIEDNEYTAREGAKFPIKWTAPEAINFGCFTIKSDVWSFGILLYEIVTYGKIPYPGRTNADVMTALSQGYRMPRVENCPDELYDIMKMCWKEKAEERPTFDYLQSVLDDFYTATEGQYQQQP

With `Cc1cc(Nc2nc(N[C@@H](C)c3ncc(F)cn3)ncc2Cl)n[nH]1` [AZD1480], the IC50 in data set [1] was 58 nM.
Take `COc1cccc(CCn2cnc(Nc3cc(N4CCN(CCO)CC4)nc(C)n3)c2)c1` [4a, 2-{4-[6-({1-[2-(3-Methoxyphenyl)ethyl]-1H-imidazol-4-yl}amino)-2-methylpyrimidin-4-yl]piperazin-1-yl}ethanol]: the IC50 in [2] came to 451 ± 13 nM; in data set [3], 560 ± 40 nM; in data set [4], 146 ± 30 nM; in data set [5], 260 ± 23 nM.
`Cc1nc(Nc2cn(CCc3ccccc3)cn2)cc(N2CCN(CCO)CC2)n1` [compound 2]: the IC50 in data set [6] was 25000 nM; in data set [7] it was above 25000 nM.
`Cc1nc(Nc2cn(CCc3cccc(O)c3)cn2)cc(N2CCN(C(=O)OC(C)(C)C)CC2)n1` [4l, tert-Butyl4-[6-({1-[2-(3-hydroxyphenyl)ethyl]-1H-imidazol-4-yl}amino)-2-methylpyrimidin-4-yl]piperazine-1-carboxylate] gave a melting point of 127 to 130 °C. For the same compound, the IC50 in [2] was 26 ± 3 nM. Besides, in [8], the “increased activity compared to the hit compound 2 on SH-SY5Y cells” value is listed as “more than 2 fold” and the IC50 was 7800 nM. The IC50 in data set [9] was 18900 nM. In addition, the IC50 in data set [3] was 7 ± 0.35 nM. The compound also showed a 50% inhibitory concentration (IC50) in data set [10] of 13300 nM. This compound yielded a half-maximal inhibitory concentration (IC50) in data set [4] of 14 ± 1.5 nM. For the same compound, the IC50 in data set [5] was determined as 50 ± 3 nM.
`COC(=O)CN1CCN(c2cc(Nc3cn(CCc4cccc(O)c4)cn3)nc(C)n2)CC1` [4k, Methyl{4-[6-({1-[2-(3-hydroxyphenyl)ethyl]-1H-imidazol-4-yl}amino)-2-methylpyrimidin-4-yl]piperazin-1-yl}acetate] returned a melting point of 127 to 130 °C. Further, in data set [2], the IC50 is 18 ± 1 nM. Moreover, in data set [8], the “increased activity compared to the hit compound 2 on SH-SY5Y cells” value is recorded as “more than 2 fold” and the IC50 was found to be 8600 nM. Also, the IC50 in data set [9] was found to be 11700 nM. Further, the IC50 in data set [3] turned out to be 3 ± 1 nM. In data set [10], this compound registered an IC50 of 12600 nM. For the same compound, the IC50 in data set [4] amounted to 9 ± 1 nM. Further, the IC50 in [5] came out at 40 ± 2 nM.
In the case of `Cc1nc(Nc2cn(CCc3cccc(O)c3)cn2)cc(N2CCNCC2)n1` [4i, 3-(2-{4-[(2-Methyl-6-piperazin-1-ylpyrimidin-4-yl)amino]-1H-imidazol-1-yl}ethyl)phenol], the melting point was 193 to 196 °C. Further, in [2], the IC50 is 27 ± 1 nM. In data set [3], the IC50 is 3 ± 0.8 nM. Moreover, the midpoint of inhibition in data set [4], the IC50, lay at 10 ± 0.4 nM. The IC50 in [5] is 83 ± 18 nM.
On to `Cc1nc(Nc2cn(CCc3cccc(O)c3)cn2)cc(N2CCN(CCO)CC2)n1` [4h, 3-{2-[4-({6-[4-(2-Hydroxyethyl)piperazin-1-yl]-2-methylpyrimidin-4-yl}amino)-1H-imidazol-1-yl]ethyl}phenol], for which the melting point lay within 150 to 155 °C. Further, in [2], the IC50 was found to be 20 ± 0.8 nM. The IC50 in [3] worked out at 3 ± 1 nM. The compound further displayed an IC50 in data set [4] of 10 ± 0.4 nM. The IC50 in [5] was 93 ± 19 nM.
For `Cc1nc(Nc2cn(CCc3ccccc3O)cn2)cc(N2CCNCC2)n1` [4f, 2-(2-{4-[(2-Methyl-6-piperazin-1-ylpyrimidin-4-yl)amino]-1H-imidazol-1-yl}ethyl)phenol] the same measures were 193 to 196 °C, 51 ± 3 nM, 3 ± 1 nM, 50 ± 4 nM and 56 ± 5 nM.
Turning to `COc1ccccc1CCn1cnc(Nc2cc(N3CCN(CCO)CC3)nc(C)n2)c1` [4c, 2-{4-[6-({1-[2-(2-Methoxyphenyl)ethyl]-1H-imidazol-4-yl}amino)-2-methylpyrimidin-4-yl]piperazin-1-yl}ethanol], the IC50 in data set [2] is 145 ± 31 nM; in data set [3], 55 ± 9 nM; in data set [4], 439 ± 45 nM; in [5], 225 ± 8 nM.
On to `Cc1nc(Nc2cn(CCc3ccccc3O)cn2)cc(N2CCN(CC(N)=O)CC2)n1` [4g, 2-{4-[6-({1-[2-(2-Hydroxyphenyl)ethyl]-1H-imidazol-4-yl}amino)-2-methylpyrimidin-4-yl]piperazin-1-yl}acetamide], for which the melting point lay in the range of 160 to 163 °C. Further, in [2], the IC50 amounted to 19 ± 2 nM. For the same compound, in [3], the IC50 was 15 ± 4 nM. In data set [4], the IC50 stood at 40 ± 5 nM. Further, the IC50 in data set [5] came out at 40 ± 5 nM.
Compound `COc1cccc(CCn2cnc(Nc3cc(N4CCN(CC(N)=O)CC4)nc(C)n3)c2)c1` [4b, 2-{4-[6-({1-[2-(3-Methoxyphenyl)ethyl]-1H-imidazol-4-yl}amino)-2-methylpyrimidin-4-yl]piperazin-1-yl}acetamide] yielded a melting point of 198 to 200 °C. In data set [2], the IC50 came to 1810 ± 307 nM. Besides, in [3], the IC50 was 1840 ± 812 nM. This compound also registered an IC50 in data set [4] of 1450 ± 768 nM. For the same compound, the IC50 in [5] was determined as 1480 ± 185 nM.
Regarding `COc1ccccc1CCn1cnc(Nc2cc(N3CCN(CC(N)=O)CC3)nc(C)n2)c1` [4d, 2-{4-[6-({1-[2-(2-Methoxyphenyl)ethyl]-1H-imidazol-4-yl}amino)-2-methylpyrimidin-4-yl]piperazin-1-yl}acetamide], the figures for the IC50 in [2], in data set [4] and in data set [5] were 1200 ± 189 nM, 1390 ± 93 nM and 1530 ± 44 nM, respectively.
`Cc1nc(Nc2cn(CCc3ccccc3O)cn2)cc(N2CCN(CCO)CC2)n1` [4e, 2-{2-[4-({6-[4-(2-Hydroxyethyl)piperazin-1-yl]-2-methylpyrimidin-4-yl}amino)-1H-imidazol-1-yl]ethyl}phenol]: the IC50 was found to be 17 ± 0.54 nM in data set [2], 11 ± 0.6 nM in data set [3], 73 ± 5 nM in [4] and 59 ± 5 nM in [5].
The corresponding values for `Cc1nc(Nc2cn(CCc3cccc(O)c3)cn2)cc(N2CCN(CC(N)=O)CC2)n1` [4j, 2-{4-[6-({1-[2-(3-Hydroxyphenyl)ethyl]-1H-imidazol-4-yl}amino)-2-methylpyrimidin-4-yl]piperazin-1-yl}acetamide] are 10 ± 1.2 nM, 3 ± 0.7 nM, 12 ± 2 nM and 40 ± 3 nM.
